Drawing on patent US20110086834A1, “ALKYNYL ALCOHOLS AS KINASE INHIBITORS” (AMGEN INC., priority 2008, published 2011), this text covers IC50 and Ki for ten compounds.

A value given as a limit tells only on which side of the number the result lay.

The target in assay [1] is T1, NIK (Homo sapiens, UniProt Q99558).
T1 construct: Both assays utilize a truncated form of NIK containing only the catalytic domain; made in house; host or cells: baculovirus expression system (insect cells implied)
Briefly: chemiluminescent (CL) assay for NIK IC50 determination. The class given is biochemical. As to conditions: truncated NIK (catalytic domain only), autophosphorylation; 50 nM biotinylated-NIK; 50 μM ATP; room temperature, 1 hour. The protocol:
Two formats of biochemical assays are implemented: (1) chemiluminescent (CL) assay for NIK IC50 determination; (2) homogenous time resolved fluorescence (HTRF) assay for NIK Ki measurement. […] The NIK proteins are purified with baculovirus expression system and further biotinylated with N-hydroxysuccinamide biotin ester (Sigma). […] The reaction mixtures are then immobilized on a Streptavidin-coated plate (Pierce). […] For the HTRF assay, 10 nM of enzyme are incubated with compounds in the presence of 20, 100, 200, or 500 μM of ATP in a buffer with 20 mM of Hepes pH7.5, 20 mM of MgCl2, 0.2% of Tween 20 and 1 mM of DTT at room temperature for 2 hours.

The target in assay [2] is T1, NIK. As to the kind of experiment: homogenous time resolved fluorescence (HTRF) assay for NIK Ki measurement. As to conditions: truncated NIK (catalytic domain only), autophosphorylation; 10 nM enzyme; 20, 100, 200 or 500 μM ATP; room temperature, 2 hours; read-out: Ki activity in the homogenous time resolved fluorescence (HTRF) assay for NIK. Format: biochemical. (Time-resolved FRET reads energy transfer from a long-lived donor to a nearby acceptor.)

T1 sequence (Q99558 400-655 limits assumed): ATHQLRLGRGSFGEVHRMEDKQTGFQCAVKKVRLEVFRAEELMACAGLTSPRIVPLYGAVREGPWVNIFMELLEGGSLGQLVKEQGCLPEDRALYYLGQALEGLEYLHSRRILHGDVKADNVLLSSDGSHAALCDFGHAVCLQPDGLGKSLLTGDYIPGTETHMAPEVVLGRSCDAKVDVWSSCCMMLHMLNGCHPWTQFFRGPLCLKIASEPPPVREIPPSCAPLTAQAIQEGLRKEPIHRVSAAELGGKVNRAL

Consider `CN1CCC2(C1)CN(c1ccnc(N)n1)c1cc(C#CC3(O)CCCC3)ccc12` (racemic) [Example 189, (rac)-1-((1-(2-Amino-4-pyrimidinyl)-1′-methyl-1,2-dihydrospiro[indole-3,3′-pyrrolidin]-6-yl)ethynyl)cyclopentanol], for which the IC50 at NIK [1] is < 1000 nM.
The same measure, in the same setting: the figure for `CC1(CCO)CN(c2nc(N)ncc2Cl)c2cc(C#CC3(O)CCCC3)ccc21` (stereo not shown) [Example 51, 1-((1-(2-amino-5-chloro-4-pyrimidinyl)-3-(2-hydroxyethyl)-3-methyl-2,3-dihydro-1H-indol-6-yl)ethynyl)cyclopentanol] is < 1000 nM; for `COCCn1cc(-c2nc(N)ncc2Cl)c2cc(C#CC(C)(O)c3nccs3)ccc21` (stereo not shown) [Example 115, 4-(3-(2-amino-5-chloropyrimidin-4-yl)-1-(2-methoxyethyl)-1H-indol-5-yl)-2-(thiazol-2-yl)but-3-yn-2-ol] it is < 1000 nM.
In the case of `Nc1ncc(Cl)c(-c2cn(C(=O)c3cccnc3)c3ccc(C#CC4(O)CCCC4)cc23)n1` [Example 123, (3-(2-amino-5-chloropyrimidin-4-yl)-5-(2-(1-hydroxycyclopentyl)ethynyl)-1H-indol-1-yl)(pyridin-3-yl)methanone], the IC50 against NIK [1] is < 1000 nM.
Turning to `Nc1ncc(Cl)c(-c2cn(C3CCOC3)c3ccc(C#CC4(O)CCCC4)cc23)n1` (stereo not shown) [Example 138, 1-(2-(3-(2-amino-5-chloropyrimidin-4-yl)-1-(tetrahydrofuran-3-yl)-1H-indol-5-yl)ethynyl)cyclopentanol], the IC50 against NIK [1] was < 1000 nM.
With `COCCn1cc(-c2nc(N)ncc2Cl)c2cc(C#CC3(O)CC[C@@H](C)C3)ccc21` (stereo partly drawn) [Example 140, (3R)-1-(2-(3-(2-amino-5-chloropyrimidin-4-yl)-1-(2-methoxyethyl)-1H-indol-5-yl)ethynyl)-3-methylcyclopentanol], the IC50 against NIK [1] was < 1000 nM.
The same measure, in the same setting: the figure for `COCCOc1cnc(N)nc1-c1c[nH]c2ccc(C#CC(O)(c3ccccc3)C(F)(F)F)cc12` (stereo not shown) [Example 235, 4-(3-(2-Amino-5-(2-methoxyethoxy)-4-pyrimidinyl)-1H-indol-5-yl)-1,1,1-trifluoro-2-phenyl-3-butyn-2-ol] is < 1000 nM; for `O=C(c1ccc(Nc2nccc(N3CCc4ccc(C#CC5(O)CCCC5)cc43)n2)cc1)N1CCOCC1` [Example 263, 1-((1-(2-((4-(4-morpholinylcarbonyl)phenyl)amino)-4-pyrimidinyl)-2,3-dihydro-1H-indol-6-yl)ethynyl)cyclopentanol] it is < 1000 nM; for `CC(O)(C#Cc1ccc2c(c1)N(c1nc(N)ncc1Cl)CC2)c1nccs1` (stereo not shown) [Example 286, 4-(1-(2-Amino-5-chloro-4-pyrimidinyl)-2,3-dihydro-1H-indol-6-yl)-2-(1,3-thiazol-2-yl)-3-Butyn-2-ol] it is < 1000 nM.
Regarding `CC(O)(C#Cc1ccc2c(c1)N(c1nc(N)ncc1Cl)CC21CCCC1)c1ncco1` (stereo not shown) [Example 319, 4-(1′-(2-Amino-5-chloro-4-pyrimidinyl)-1′,2′-dihydrospiro[cyclopentane-1,3′-indol]-6′-yl)-2-(1,3-oxazol-2-yl)-3-butyn-2-ol], the Ki at NIK [2] was < 1000 nM.

What is called IC50 is the concentration that inhibits the measured activity by half. As a reminder, the Ki is the equilibrium dissociation constant of an inhibitor or competing ligand from its target.
